# Experimental data taken from patent US9694016B2 (Novartis AG, priority 2013, dated 2017).
# Target: T1, b-Raf (V600E) (Homo sapiens (Human), UniProt P15056, V600E)
# Assay: not given
# Settings: read-out: b-Raf IC-50; Table 2; AlphaScreen, 3 hours reaction
# T1 sequence (P15056 whole entry V600E): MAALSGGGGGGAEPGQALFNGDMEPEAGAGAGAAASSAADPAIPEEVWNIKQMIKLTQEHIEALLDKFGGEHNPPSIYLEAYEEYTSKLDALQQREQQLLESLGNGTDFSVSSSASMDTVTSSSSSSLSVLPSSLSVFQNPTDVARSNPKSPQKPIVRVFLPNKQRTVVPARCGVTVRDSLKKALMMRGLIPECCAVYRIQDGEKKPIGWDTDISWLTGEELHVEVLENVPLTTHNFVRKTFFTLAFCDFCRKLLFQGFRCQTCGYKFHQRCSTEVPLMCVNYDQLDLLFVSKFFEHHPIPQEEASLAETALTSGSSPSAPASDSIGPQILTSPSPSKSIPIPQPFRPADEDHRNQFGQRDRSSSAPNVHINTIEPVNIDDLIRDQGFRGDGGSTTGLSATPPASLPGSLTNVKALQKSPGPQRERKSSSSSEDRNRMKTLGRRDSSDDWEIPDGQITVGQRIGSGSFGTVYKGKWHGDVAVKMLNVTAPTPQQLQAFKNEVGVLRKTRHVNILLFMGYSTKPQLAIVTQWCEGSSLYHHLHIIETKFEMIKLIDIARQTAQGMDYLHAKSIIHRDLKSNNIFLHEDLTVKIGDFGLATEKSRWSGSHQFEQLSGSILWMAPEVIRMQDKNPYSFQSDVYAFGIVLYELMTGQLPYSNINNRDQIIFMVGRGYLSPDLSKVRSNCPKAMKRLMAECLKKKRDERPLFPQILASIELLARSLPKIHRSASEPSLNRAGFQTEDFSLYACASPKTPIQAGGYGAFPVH
row,Compound,IC50 [nM]
1,"Cc1ccc(C(=O)Nc2cccc(C(F)(F)F)c2)cc1-c1ccnc(N2CCOCC2)c1 [Example 63, 4-Methyl-3-(2-morpholinopyridin-4-yl)-N-(3-(trifluoromethyl)phenyl)benzamide]",2.1
2,"Cc1ccc(NC(=O)c2cccc(C(F)(F)F)c2)cc1-c1cncc(N2CCOCC2)n1 [Example 118, N-(4-methyl-3-(6-morpholinopyrazin-2-yl)phenyl)-3-(trifluoromethyl)benzamide]",0.7
3,"Cc1ccc(NC(=O)c2cccc(C(F)(F)F)c2)cc1-c1cn(C)c(=O)c(N2CCOCC2)n1 [Example 119, N-(4-methyl-3-(4-methyl-6-morpholino-5-oxo-4,5-dihydropyrazin-2-yl)phenyl)-3-(trifluoromethyl)benzamide]",0.4
4,"Cc1ccc(NC(=O)c2cccc(C(F)(F)F)c2)cc1-c1csc(N2CCOCC2)n1 [Example 199, N-(4-methyl-3-(2-morpholinothiazol-4-yl)phenyl)-3-(trifluoromethyl)benzamide]",3.6

# Target: C-Raf TR (truncated C-Raf protein, Δ1-324 deletion mutant) (Homo sapiens (Human), UniProt P04049)
# Assay: not given
# Assay type: biochemical
# Settings: truncated C-Raf approximately 4 nM, ATP 1 uM, 60 min pre-incubation, 1 hour reaction
# Experimental: biotinylated Mek, kinase dead
# biotinylated Mek, Kinase dead approximately 10 nM
row,Compound,IC50 [nM]
1,"Cc1ccc(C(=O)Nc2cccc(C(F)(F)F)c2)cc1-c1nc(N2CCOCC2)cc(N2CCOCC2)n1 [Example 14, 3-(4,6-dimorpholinopyrimidin-2-yl)-4-methyl-N-(3-(trifluoromethyl)phenyl)benzamide]",0.803
2,"Cc1ccc(C(=O)Nc2cccc(C(F)(F)F)c2)cc1-c1ccnc(N2CCOCC2)c1 [Example 63, 4-Methyl-3-(2-morpholinopyridin-4-yl)-N-(3-(trifluoromethyl)phenyl)benzamide]",0.508
3,"Cc1ccc(NC(=O)c2cccc(C(F)(F)F)c2)cc1-c1cncc(N2CCOCC2)n1 [Example 118, N-(4-methyl-3-(6-morpholinopyrazin-2-yl)phenyl)-3-(trifluoromethyl)benzamide]",0.308
4,"Cc1ccc(NC(=O)c2cccc(C(F)(F)F)c2)cc1-c1cn(C)c(=O)c(N2CCOCC2)n1 [Example 119, N-(4-methyl-3-(4-methyl-6-morpholino-5-oxo-4,5-dihydropyrazin-2-yl)phenyl)-3-(trifluoromethyl)benzamide]",0.27
5,"Cc1ccc(NC(=O)c2cccc(C(F)(F)F)c2)cc1-c1csc(N2CCOCC2)n1 [Example 199, N-(4-methyl-3-(2-morpholinothiazol-4-yl)phenyl)-3-(trifluoromethyl)benzamide]",1.29

# Target: T1, b-Raf (V600E)
# Assay: biochemical
# Settings: not given
row,Compound,IC50 [nM]
1,"Cc1ccc(NC(=O)c2ccnc(C(C)(F)F)c2)cc1-c1cc(N2CCOCC2)n(C)c(=O)c1 [Example 471, 2-(1,1-difluoroethyl)-N-(4-methyl-3-(1-methyl-6-morpholino-2-oxo-1,2-dihydropyridin-4-yl)phenyl)isonicotinamide]",1
2,"CCOc1nnc(-c2cc(NC(=O)c3cccc(S(C)(=O)=O)c3)ccc2C)cc1N1CCOCC1 [Example 559, N-(3-(6-ethoxy-5-morpholinopyridazin-3-yl)-4-methylphenyl)-3-(methylsulfonyl)benzamide]",0.9
3,"Cc1ccc(NC(=O)c2cnnc(C(F)(F)F)c2)cc1-c1cc(N2CCOCC2)c(OC2CCOCC2)nn1 [Example 577, N-(4-methyl-3-(5-morpholino-6-((tetrahydro-2H-pyran-4-yl)oxy)pyridazin-3-yl)phenyl)-6-(trifluoromethyl)pyridazine-4-carboxamide]",0.6
4,"Cc1ccc(NC(=O)c2ccnc(C(C)(C)C#N)c2)cc1-c1cc(N2CCOCC2)c(OC(C)C)nn1 [Example 596, 2-(2-cyanopropan-2-yl)-N-(3-(6-isopropoxy-5-morpholinopyridazin-3-yl)-4-methylphenyl)isonicotinamide]",1.3
5,"CCNc1nc(-c2cc(C(=O)Nc3cccc(C(F)(F)F)c3)ccc2C)cc(N2CCOCC2)n1 [Example 710, 3-(2-(ethylamino)-6-morpholinopyrimidin-4-yl)-4-methyl-N-(3-(trifluoromethyl)phenyl)benzamide]",4
6,"Cc1ncc(NC(=O)c2cccc(C(F)(F)F)c2)cc1-c1cc(N2CCOCC2)nc(NC[C@@H](C)O)n1 [Example 743, (R)—N-(5-(2-((2-hydroxypropyl)amino)-6-morpholinopyrimidin-4-yl)-6-methylpyridin-3-yl)-3-(trifluoromethyl)benzamide]",3.7
7,"CCn1cc(C(=O)Nc2ccc(C)c(-c3cc4[nH]cnc4c(N4CCOCC4)n3)c2)c(C)n1 [Example 814, 1-ethyl-3-methyl-N-(4-methyl-3-(4-morpholino-1H-imidazo[4,5-c]pyridin-6-yl)phenyl)-1H-pyrazole-4-carboxamide]",32.1
8,"Cc1ccc(NC(=O)c2cn(C)nc2C)cc1-c1cc2[nH]cnc2c(N2CCOCC2)n1 [Example 815, 1,3-dimethyl-N-(4-methyl-3-(4-morpholino-1H-imidazo[4,5-c]pyridin-6-yl)phenyl)-1H-pyrazole-4-carboxamide]",100
9,"Cc1ccc(NC(=O)c2cn(C(C)C)nc2C)cc1-c1cc2[nH]cnc2c(N2CCOCC2)n1 [Example 816, 1-isopropyl-3-methyl-N-(4-methyl-3-(4-morpholino-1H-imidazo[4,5-c]pyridin-6-yl)phenyl)-1H-pyrazole-4-carboxamide]",17.4
10,"Cc1cc(C(=O)Nc2ccc(C)c(-c3cc4[nH]cnc4c(N4CCOCC4)n3)c2)n(C)n1 [Example 817, 1,3-dimethyl-N-(4-methyl-3-(4-morpholino-1H-imidazo[4,5-c]pyridin-6-yl)phenyl)-1H-pyrazole-5-carboxamide]",200
11,"Cc1ccc(NC(=O)c2cc(C3CC3)nn2C)cc1-c1cc2[nH]cnc2c(N2CCOCC2)n1 [Example 818, 3-cyclopropyl-1-methyl-N-(4-methyl-3-(4-morpholino-1H-imidazo[4,5-c]pyridin-6-yl)phenyl)-1H-pyrazole-5-carboxamide]",18.4
12,"Cc1ccc(NC(=O)c2cc(C3CC3)on2)cc1-c1cc2[nH]cnc2c(N2CCOCC2)n1 [Example 820, 5-cyclopropyl-N-(4-methyl-3-(4-morpholino-1H-imidazo[4,5-c]pyridin-6-yl)phenyl)isoxazole-3-carboxamide]",1.4
13,"Cc1ccc(NC(=O)c2cccc(-c3nnco3)c2)cc1-c1cc2[nH]cnc2c(N2CCOCC2)n1 [Example 822, N-(4-methyl-3-(4-morpholino-1H-imidazo[4,5-c]pyridin-6-yl)phenyl)-3-(1,3,4-oxadiazol-2-yl)benzamide]",7.7
14,"Cc1ccc(NC(=O)c2ccnc(C(C)(C)O)c2)cc1-c1cc2[nH]cnc2c(N2CCOCC2)n1 [Example 823, 2(2-hydroxypropan-2-yl)-N-(4-methyl-3-(4-morpholino-1H-imidazo[4,5-c]pyridin-6-yl)phenyl)isonicotinamide]",9.4
15,"Cc1ccc(NC(=O)c2cccc(C(F)(F)F)c2)cc1-c1nc2c(c(N3CCOCC3)n1)CCNC2 [Example 834, N-(4-methyl-3-(4-morpholino-5,6,7,8-tetrahydropyrido[3,4-d]pyrimidin-2-yl)phenyl)-3-(trifluoromethyl)benzamide]",0.6
16,"CNCc1ccc(C(=O)Nc2ccc(C)c(-c3cc(N4CCOCC4)c4nccn4c3)c2)cc1C(F)(F)F [Example 853, N-(4-methyl-3-(8-morpholinoimidazo[1,2-a]pyridin-6-yl)phenyl)-4-((methylamino)methyl)-3-(trifluoromethyl)benzamide]",2.4
17,"CNCc1ccc(C(=O)Nc2cnc(C)c(-c3cc(N4CCOCC4)c4nccn4c3)c2)cc1C(F)(F)F [Example 885, N-(6-methyl-5-(8-morpholinoimidazo[1,2-a]pyridin-6-yl)pyridin-3-yl)-4-((methylamino)methyl)-3-(trifluoromethyl)benzamide]",12.3
18,"Cc1ncc(NC(=O)c2cccc(C(F)(F)F)c2)cc1-c1cnc(O[C@H](C)CO)c(N2CCOCC2)c1 [Example 1021, (R)—N-(6′-((1-hydroxypropan-2-yl)oxy)-2-methyl-5′-morpholino-[3,3′-bipyridin]-5-yl)-3-(trifluoromethyl)benzamide]",2.6
19,"Cc1ncc(NC(=O)c2cccc(C(F)(F)F)c2)cc1-c1cnc(OC[C@H](C)O)c(N2CCOCC2)c1 [Example 1022, (S)—N-(6′-(2-hydroxypropoxy)-2-methyl-5′-morpholino-[3,3′-bipyridin]-5-yl)-3-(trifluoromethyl)benzamide]",1.49
20,"Cc1ccc(NC(=O)c2ccnc(C(C)(F)F)c2)cc1-c1ccnc(N2CCOCC2)c1 [Example 1137, 2-(1,1-difluoroethyl)-N-(4-methyl-3-(2-morpholinopyridin-4-yl)phenyl)isonicotinamide]",0.62
